Broadly, the Kb is the affinity of an antagonist, worked out from how it opposes an agonist.

The source of these data is US4704396A, “Phenacyl esters of 1-substituted-6-(substituted and unsubstituted) dihydrolysergic acids useful as 5HT receptor antagonists” (Eli Lilly and Company, priority 1985, dated 1987).

Where a name gives a salt, the structure may show the parent alone.

The target of this experiment is T1, 5HT2 receptors (Rattus norvegicus, UniProt P14842).
T1 construct: from tissue; host or cells: external jugular vein of male Wistar rats
T1 sequence (P14842 whole entry): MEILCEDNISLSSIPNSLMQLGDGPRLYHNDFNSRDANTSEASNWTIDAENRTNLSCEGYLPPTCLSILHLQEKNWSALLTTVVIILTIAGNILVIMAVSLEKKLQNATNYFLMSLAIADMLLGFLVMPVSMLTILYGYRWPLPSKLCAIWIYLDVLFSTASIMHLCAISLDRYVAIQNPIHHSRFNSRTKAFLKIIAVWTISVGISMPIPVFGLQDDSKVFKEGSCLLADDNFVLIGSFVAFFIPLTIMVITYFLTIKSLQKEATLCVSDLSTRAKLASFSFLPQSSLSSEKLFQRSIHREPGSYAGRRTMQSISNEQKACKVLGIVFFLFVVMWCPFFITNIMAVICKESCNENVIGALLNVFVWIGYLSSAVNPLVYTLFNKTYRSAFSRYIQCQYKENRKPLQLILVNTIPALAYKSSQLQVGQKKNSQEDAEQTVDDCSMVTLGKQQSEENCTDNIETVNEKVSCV
Kind of experiment: Apparent dissociation constants (KB) against serotonin contraction in rat jugular vein. The class given is cell-based. The settings on record: serotonin agonist, antagonist incubated one hour, read-out: 5HT2 -Log Kb ± S.E. (converted). On the procedure: An initial optimum resting force of 1 and 4 g was applied to the jugular veins and aorta, respectively. […] Exp. Ther., 205, 400 (1978). Alpha receptor antagonist activity was evaluated in the aorta.

`CC(OC(=O)[C@@H]1C[C@@H]2c3cccc4c3c(cn4C(C)C)C[C@H]2N(C)C1)C(=O)c1ccccc1` (mixture of isomers) [R^3=CH3 R^4=H R^10=H maleate, (±)-α-Methylphenacyl 1-isopropyl-9,10-dihydrolysergate maleate]: the Kb was 4.57 nM. For `CC(C)n1cc2c3c(cccc31)[C@H]1C[C@@H](C(=O)OC(C)(C)C(=O)c3ccccc3)CN(C)[C@@H]1C2` [R^3=CH3 R^4=CH3 R^10=H maleate, α,α-Dimethylphenacyl 1-isopropyl-9,10-dihydrolysergate maleate monohydrate] the value was 14.8 nM; for `CC(OC(=O)[C@@H]1C[C@@H]2c3cccc4c3c(cn4C(C)C)C[C@H]2N(C)C1)C(=O)c1ccc(O)cc1` (stereo partly drawn) [R^3=CH3 R^4=H R^10=p-OH maleate, α-Methyl-p-hydroxyphenacyl 1-isopropyl-9,10-dihydrolysergate maleate], 0.347 nM. Next, `CC(C)n1cc2c3c(cccc31)[C@H]1C[C@@H](C(=O)OCC(=O)c3ccccc3)CN(C)[C@@H]1C2` [R^3=H R^4=H R^10=H maleate.H2 O, phenacyl 1-isopropyl-9,10-dihydrolysergate maleate monohydrate]: 15.1 nM; `CC(C)n1cc2c3c(cccc31)[C@H]1C[C@@H](C(=O)OCC(=O)c3ccc(Cl)cc3)CN(C)[C@@H]1C2` [R^3=H R^4=H R^10=p-Cl maleate, p-Chlorophenacyl 1-isopropyl-9,10-dihydrolysergate maleate]: 34.7 nM; `COc1ccc(C(=O)COC(=O)[C@@H]2C[C@@H]3c4cccc5c4c(cn5C(C)C)C[C@H]3N(C)C2)cc1` [R^3=H R^4=H R^10=p-OCH3 maleate, p-Methoxyphenacyl 1-isopropyl-9,10-dihydrolysergate maleate]: 1.29 nM.

For `CC(C)n1cc2c3c(cccc31)[C@H]1C[C@@H](C(=O)OCC(=O)c3ccc(O)cc3)CN(C)[C@@H]1C2` [R^3=H R^4=H R^10=p-OH maleate.H2 O, p-Hydroxyphenacyl 1-isopropyl-9,10-dihydrolysergate maleate], the Kb was 0.138 nM.

As to `CC(C)n1cc2c3c(cccc31)[C@H]1C[C@@H](C(=O)OCC(=O)c3ccc(-c4ccccc4)cc3)CN(C)[C@@H]1C2` [R^3=H R^4=H R^10=p-phenyl maleate, 4-Phenylphenacyl 1-isopropyl-9,10-dihydrolysergate maleate], the antagonist dissociation constant (Kb) was 70.8 nM.
